Laboratory results: the Kinase Knowledgebase extract (Sharma et al. 2016)

Biological target: CDK2 (human) (UniProt P24941)
Experiment: Enzyme Assay

Row | Structure (SMILES) | IC50 [µM]
1 | C1=CCn2ccc3ccc(cc32)-c2ccnc(n2)Nc2ccc(OCCN3CCCC3)c(c2)COC1 | ≤ 1
2 | ClCCOc1ccc2cc1COCC=CCn1ccc3ccc(cc31)-c1ccnc(n1)N2 | ≤ 1
3 | CN1CCN(c2ccc3cc2COCC=CCn2ccc4ccc(cc42)-c2ccnc(n2)N3)CC1 | ≤ 1
4 | O=C(CCN1CCCCC1)Nc1ccc2cc1OCC=CCn1ccc3ccc(cc31)-c1ccnc(n1)N2 | ≤ 1
5 | CC(=O)NCCNCCOc1ccc2cc1COCC=CCn1ccc3ccc(cc31)-c1ccnc(n1)N2 | ≤ 1
6 | C1=CCn2ccc3ccc(cc32)-c2ccnc(n2)Nc2cccc(c2)COC1 | ≤ 1
7 | O=C(CCN1CCCCC1)Nc1ccc2cc1OCCC=CCn1ccc3ccc(cc31)-c1ccnc(n1)N2 | ≤ 1
8 | CCN(CC)CCNCCOc1ccc2cc1COCC=CCn1ccc3ccc(cc31)-c1ccnc(n1)N2 | ≤ 1
9 | CN1CC=CCCn2ccc3ccc(cc32)-c2ccnc(n2)Nc2cccc(c2)C1 | ≤ 1
10 | C1=CCOCc2cc(ccc2OCCN2CCCC2)Nc2nccc(n2)-c2ccc3ccn(c3c2)CC1 | ≤ 1
11 | C1=CCn2ccc3ccc(cc32)-c2ccnc(n2)Nc2cccc(c2)OCC1 | ≤ 1
12 | C1=CCOCc2cc(ccc2OCCN2CCCC2)Nc2nccc(n2)-c2ccc3c(ccn3CC1)c2 | ≤ 1
13 | Cc1cnc2nc1-c1ccc3ccn(c3c1)CC=CCOCc1cc(ccc1OCCN1CCCC1)N2 | ≤ 1
